From ChEMBL document CHEMBL5131397, “Discovery and Optimization of Pyrazole Amides as Inhibitors of ELOVL1” (J Med Chem, 2021)
Activity calls are given as the source filed them. No cut-off for these calls is given here.

Legend:
[1] = Oral bioavailability in Sprague-Dawley rat at 3 mg/kg upto 24 hrs by LC/MS/MS analysis; type: ADME, organism-based; details: in vivo
[2] = Plasma protein binding in dog at 5 uM; type: ADME, cell-free, Canis lupus familiaris; details: read-out: PPB (converted)
[3] = target: T1, Very long chain fatty acid elongase 7 (Homo sapiens, UniProt A1L3X0); assay: Inhibition of ELOVL7 (unknown origin) using C18-acyl-CoA as substrate by radiometric enzyme assay
T1 sequence (A1L3X0 whole entry): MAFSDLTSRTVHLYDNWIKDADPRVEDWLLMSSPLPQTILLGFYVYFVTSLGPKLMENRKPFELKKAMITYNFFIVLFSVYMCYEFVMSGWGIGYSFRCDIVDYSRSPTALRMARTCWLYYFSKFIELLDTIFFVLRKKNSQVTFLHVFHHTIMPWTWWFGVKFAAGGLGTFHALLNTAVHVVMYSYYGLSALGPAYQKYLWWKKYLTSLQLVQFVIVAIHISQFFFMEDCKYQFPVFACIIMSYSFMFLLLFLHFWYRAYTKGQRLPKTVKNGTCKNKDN

[4] = Half life in mouse at 1 mg/kg, iv upto 48 hrs by LC/MS/MS analysis; type: ADME, organism-based; details: in vivo
[5] = Half life in Cynomolgus monkey at 1 mg/kg, iv upto 48 hrs by LC/MS/MS analysis; type: ADME, organism-based, Macaca fascicularis; details: in vivo
[6] = Oral bioavailability in Cynomolgus monkey at 3 mg/kg upto 24 hrs by LC/MS/MS analysis; type: ADME, organism-based, Macaca fascicularis; details: in vivo
[7] = Lipophilicity, logD of compound at pH 7.4; type: physicochemical; details: buffer
[8] = target: T2, Serine/threonine-protein kinase TNNI3K (Homo sapiens) (UniProt Q59H18); assay: Inhibition of TNNI3K (unknown origin) at 10 uM
T2 sequence (whole entry): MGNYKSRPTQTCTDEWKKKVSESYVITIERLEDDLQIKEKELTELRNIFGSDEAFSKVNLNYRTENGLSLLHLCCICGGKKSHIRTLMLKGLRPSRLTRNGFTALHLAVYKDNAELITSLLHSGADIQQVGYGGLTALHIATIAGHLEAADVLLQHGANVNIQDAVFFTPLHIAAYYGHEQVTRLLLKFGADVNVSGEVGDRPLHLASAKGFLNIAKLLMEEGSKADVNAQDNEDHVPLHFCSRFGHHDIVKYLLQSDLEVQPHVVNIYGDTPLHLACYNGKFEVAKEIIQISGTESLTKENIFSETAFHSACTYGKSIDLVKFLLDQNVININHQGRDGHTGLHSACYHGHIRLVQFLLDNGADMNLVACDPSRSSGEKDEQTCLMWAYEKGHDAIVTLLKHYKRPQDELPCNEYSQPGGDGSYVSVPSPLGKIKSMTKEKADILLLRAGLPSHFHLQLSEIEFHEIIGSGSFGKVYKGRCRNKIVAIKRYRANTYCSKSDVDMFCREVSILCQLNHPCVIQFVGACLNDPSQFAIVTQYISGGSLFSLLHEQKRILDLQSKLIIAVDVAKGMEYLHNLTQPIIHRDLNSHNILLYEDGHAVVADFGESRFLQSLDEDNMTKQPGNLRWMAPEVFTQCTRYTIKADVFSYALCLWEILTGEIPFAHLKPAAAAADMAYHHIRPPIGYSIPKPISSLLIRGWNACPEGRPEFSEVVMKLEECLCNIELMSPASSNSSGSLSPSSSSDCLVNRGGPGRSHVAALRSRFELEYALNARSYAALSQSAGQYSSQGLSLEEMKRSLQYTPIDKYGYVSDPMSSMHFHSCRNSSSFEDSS

[9] = target: T3, Very long chain fatty acid elongase 1 (Homo sapiens, UniProt Q9BW60); assay: Inhibition of ELOVL1 in Het […] 1 patient-derived human lymphocyte assessed as reduction of C26:0 VLCFA synthesis incubated for 48 hrs by cellular assay; type: cell-based
T3 sequence (Q9BW60 whole entry): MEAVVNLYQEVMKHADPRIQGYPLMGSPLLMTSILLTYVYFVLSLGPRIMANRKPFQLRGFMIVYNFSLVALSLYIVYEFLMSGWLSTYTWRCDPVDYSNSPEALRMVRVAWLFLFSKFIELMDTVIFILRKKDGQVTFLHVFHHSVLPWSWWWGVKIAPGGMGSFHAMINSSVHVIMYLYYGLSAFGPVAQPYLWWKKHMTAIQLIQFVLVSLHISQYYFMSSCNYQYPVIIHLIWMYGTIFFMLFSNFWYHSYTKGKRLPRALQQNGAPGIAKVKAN

[10] = target: T4, Very long chain fatty acid elongase 7 (Homo sapiens) (UniProt A1L3X0); assay: Inhibition of ELOVL-7 in human HEK2936E cells assessed as increase in C20:0 lipo phosphatidyl choline synthesis at 100 nM in presence of 13C-labeled acetate measured after 48 hrs; type: cell-based
T4 sequence (whole entry): T1 sequence (A1L3X0 whole entry)

Fibroblast = assay: Reduction in C26:0/C16:0 lysophosphatidyl choline levels in healthy donor-derived human fibroblast incubated for 48 hrs; type: functional, cell-based
[11] = Reduction in C26:0 LPC level in ABCD1 knock out mouse blood at or above 4 mg/kg, po qd for 105 days by LC-MS/MS analysis relative to control; type: functional; design: scale not given: the % may be the effect or the level left; details: time 105 day
Mus musculus = assay: Reduction in C26:0/C16:0 LPC level in high fat diet fed ABCD1 knock out mouse blood at 1 to 8 mg/kg, po qd after 7 days of dosing measured on day 14 by LC-MS/MS analysis; type: functional, organism-based; details: dose 1-8 mg/kg, time 14.0 day
[12] = Reduction in C26:0/C16:0 LPC level in ABCD1 knock out mouse CNS at 20 mg/kg, po qd measured after 8 months of dosing by LC-MS/MS analysis; type: functional; design: scale not given: the % may be the effect or the level left; details: 5840 h
[13] = Reduction in C26:0 LPC level in ABCD1 knock out mouse CNS at 8 mg/kg, po qd measured after 6 months of dosing by LC-MS/MS analysis; type: functional; design: scale not given: the % may be the effect or the level left; details: 4380 h
[14] = Reduction in C26:0 LPC level in ABCD1 knock out mouse CNS at 16 mg/kg, po qd measured after 6 months of dosing by LC-MS/MS analysis; type: functional; design: scale not given: the % may be the effect or the level left; details: 4380 h
[15] = Reduction in C26:0/C16:0 acyl-carnitine levels in ABCD1 knock out mouse CNS at 8 mg/kg, po qd measured after 28 days of dosing by LC-MS/MS analysis; type: functional; design: scale not given: the % may be the effect or the level left; details: time 28 day
[16] = Toxicity in Sprague-Dawley rat assessed as decrease in body weight at 5 to 50 mg/kg/day, po administered for 8 weeks; type: organism-based; details: in vivo, 1344 h, dose 5-50 mg/kg/day
[17] = Toxicity in Cynomolgus monkey assessed as minimal focal gliosis at 20 to 50 mg/kg/day, po administered for 14 days; type: organism-based, Macaca fascicularis; details: in vivo, 336 h, dose 20-50 mg/kg/day, time 14 day
[18] = Toxicity in Cynomolgus monkey assessed as multifocal gliosis at 20 to 50 mg/kg/day, po administered for 14 days; type: organism-based, Macaca fascicularis; details: in vivo, 336 h, dose 20-50 mg/kg/day, time 14 day
[19] = Toxicity in Cynomolgus monkey assessed as dry and red scaly areas on abdomen at 5 to 50 mg/kg/day, po administered for 14 days by macroscopic observation analysis; type: organism-based, Macaca fascicularis; details: in vivo, 336 h, dose 5-50 mg/kg/day, time 14 day
[20] = Toxicity in Cynomolgus monkey assessed as acanthosis at 5 to 50 mg/kg/day, po administered for 14 days by microscopic observation analysis; type: organism-based, Macaca fascicularis; details: in vivo, 336 h, dose 5-50 mg/kg/day, time 14 day

For `O=C(Nc1ccn(-c2ccnc(F)c2)n1)C1(c2ccccc2F)CC1`, the F [1] was 66%, the fraction unbound at 5 µM [2] was 0.061 and the IC50 [3] was over 500000 nM. For the same compound, the half-life [4] was 2.9 h, the half-life [5] was 5.4 h and the bioavailability [6] was 100%. It also gave a logD [7] of 3.2, an inhibition [8] of over 50% and an IC50 [9] of 5 nM. For the same compound, the inhibition [10] was “Active”, the Activity (Fibroblast) was “Active” and the Activity [11] was 85%. For the same compound, the Activity (Mus musculus) was “Active”, the Activity [12] was 65% and the Activity [13] was 49%. For the same compound, the Activity [14] was 51%, the Activity [15] was 55% and the Activity [16] was “Toxic”. The Activity [17] was “Toxic”, the Activity [18] was “Toxic” and the Activity [19] was “Toxic”. For the same compound, the Activity [20] was “Toxic”.
